Numbers after ± are expanded uncertainties.
Assays:
[1] = xn = mol fraction of the nth substance listed; conditions: 100 kPa, Liquid; for viscosity: Falling or rolling sphere viscometry; for mass density: Vibrating tube method; for electrical conductivity: Direct current cell with electrodes
[2] = refractive index (Na D-line) (dimensionless); xn = mol fraction of the nth substance listed; conditions: 298.15 K, 100 kPa, Liquid, Standard Abbe refractometry

CN(C)C(=[NH2+])N(C)C.c1c[n-]cn1 [1,1,3,3-tetramethylguanidinium imidazol-1-ide] + O
[1]
Conditions	electrical conductivity [S/m]	mass density [kg/m3]	viscosity [mPa·s]
293.15 K, x1 = 0.0511	–	1023.04 ± 4.1	3.157 ± 0.14
293.15 K, x1 = 0.0991	–	1024.53 ± 4.1	5.561 ± 0.23
293.15 K, x1 = 0.207	–	1025.54 ± 4.1	10.23 ± 0.42
293.15 K, x1 = 0.3005	–	1019.92 ± 4.1	14.29 ± 0.59
293.15 K, x1 = 0.3834	–	1015.77 ± 4.1	15.79 ± 0.65
293.15 K, x1 = 0.4978	–	1010.24 ± 4	16.03 ± 0.66
293.15 K, x1 = 0.6356	–	1005.44 ± 4	14.5 ± 0.6
293.15 K, x1 = 0.8019	–	1001.45 ± 4	12.12 ± 0.51
293.15 K, x1 = 0.8984	–	999.17 ± 4	10.19 ± 0.43
293.15 K, x1 = 1	–	997.25 ± 4.1	8.952 ± 0.38
298.15 K, x1 = 0.002	1.524 ± 0.015	–	–
298.15 K, x1 = 0.003	1.88 ± 0.019	–	–
298.15 K, x1 = 0.0039	2.47 ± 0.03	–	–
298.15 K, x1 = 0.005	2.88 ± 0.03	–	–
298.15 K, x1 = 0.006	3.19 ± 0.03	–	–
298.15 K, x1 = 0.008	3.36 ± 0.03	–	–
298.15 K, x1 = 0.01	3.67 ± 0.04	–	–
298.15 K, x1 = 0.0149	3.96 ± 0.04	–	–
298.15 K, x1 = 0.0199	3.93 ± 0.04	–	–
298.15 K, x1 = 0.0299	3.72 ± 0.04	–	–
298.15 K, x1 = 0.0398	3.22 ± 0.03	–	–
298.15 K, x1 = 0.0499	2.7 ± 0.03	–	–
298.15 K, x1 = 0.0511	–	1019.97 ± 4.1	2.519 ± 0.11
298.15 K, x1 = 0.0599	2.31 ± 0.02	–	–
298.15 K, x1 = 0.0699	1.97 ± 0.02	–	–
298.15 K, x1 = 0.0799	1.711 ± 0.017	–	–
298.15 K, x1 = 0.0893	1.517 ± 0.015	–	–
298.15 K, x1 = 0.0991	–	1020.57 ± 4.1	4.311 ± 0.18
298.15 K, x1 = 0.0996	1.31 ± 0.013	–	–
298.15 K, x1 = 0.1495	0.767 ± 0.008	–	–
298.15 K, x1 = 0.1994	0.53 ± 0.005	–	–
298.15 K, x1 = 0.207	–	1021.21 ± 4.1	7.645 ± 0.32
298.15 K, x1 = 0.3005	–	1015.51 ± 4.1	11.07 ± 0.46
298.15 K, x1 = 0.3504	0.272 ± 0.003	–	–
298.15 K, x1 = 0.3834	–	1011.35 ± 4	12.14 ± 0.5
298.15 K, x1 = 0.4978	–	1005.81 ± 4	12.35 ± 0.51
298.15 K, x1 = 0.4989	0.215 ± 0.002	–	–
298.15 K, x1 = 0.6356	–	1001 ± 4	11.28 ± 0.47
298.15 K, x1 = 0.6512	0.195 ± 0.002	–	–
298.15 K, x1 = 0.8019	–	997.07 ± 4	9.561 ± 0.4
298.15 K, x1 = 0.8447	0.205 ± 0.002	–	–
298.15 K, x1 = 0.8984	–	994.72 ± 4	8.186 ± 0.34
298.15 K, x1 = 1	0.218 ± 0.002	992.8 ± 4	7.287 ± 0.31
303.15 K, x1 = 0.0511	–	1016.67 ± 4.1	2.148 ± 0.092
303.15 K, x1 = 0.0991	–	1016.58 ± 4.1	3.601 ± 0.15
303.15 K, x1 = 0.207	–	1016.83 ± 4.1	6.045 ± 0.25
303.15 K, x1 = 0.3005	–	1011.06 ± 4	8.853 ± 0.36
303.15 K, x1 = 0.3834	–	1006.9 ± 4	9.629 ± 0.4
303.15 K, x1 = 0.4978	–	1001.35 ± 4	9.809 ± 0.4
303.15 K, x1 = 0.6356	–	996.54 ± 4	9.023 ± 0.37
303.15 K, x1 = 0.8019	–	992.72 ± 4	7.768 ± 0.32
303.15 K, x1 = 0.8984	–	990.26 ± 4	6.72 ± 0.28
303.15 K, x1 = 1	–	988.35 ± 4	6.044 ± 0.25
308.15 K, x1 = 0.0511	–	1013.28 ± 4.1	1.854 ± 0.079
308.15 K, x1 = 0.0991	–	1012.53 ± 4	3.021 ± 0.12
308.15 K, x1 = 0.207	–	1012.42 ± 4	4.956 ± 0.2
308.15 K, x1 = 0.3005	–	1006.59 ± 4	7.201 ± 0.3
308.15 K, x1 = 0.3834	–	1002.43 ± 4	7.806 ± 0.32
308.15 K, x1 = 0.4978	–	996.88 ± 4	7.952 ± 0.33
308.15 K, x1 = 0.6356	–	992.07 ± 4	7.354 ± 0.3
308.15 K, x1 = 0.8019	–	988.36 ± 4	6.42 ± 0.27
308.15 K, x1 = 0.8984	–	985.81 ± 4	5.611 ± 0.23
308.15 K, x1 = 1	–	983.9 ± 4	5.097 ± 0.21
313.15 K, x1 = 0.0511	–	1009.78 ± 4	1.617 ± 0.069
313.15 K, x1 = 0.0991	–	1008.4 ± 4	2.592 ± 0.11
313.15 K, x1 = 0.207	–	1007.97 ± 4	4.126 ± 0.17
313.15 K, x1 = 0.3005	–	1002.09 ± 4	5.934 ± 0.24
313.15 K, x1 = 0.3834	–	997.94 ± 4	6.428 ± 0.26
313.15 K, x1 = 0.4978	–	992.4 ± 4	6.542 ± 0.27
313.15 K, x1 = 0.6356	–	987.61 ± 4	6.07 ± 0.25
313.15 K, x1 = 0.8019	–	983.97 ± 4	5.363 ± 0.22
313.15 K, x1 = 0.8984	–	981.34 ± 4	4.756 ± 0.2
313.15 K, x1 = 1	–	979.46 ± 4	4.358 ± 0.18

[2]
Conditions	refractive index
x1 = 0.0511	1.3973 ± 0.0011
x1 = 0.0991	1.4278 ± 0.0006
x1 = 0.207	1.4589 ± 0.0006
x1 = 0.3005	1.4722 ± 0.0005
x1 = 0.3834	1.4787 ± 0.0005
x1 = 0.4978	1.485 ± 0.0005
x1 = 0.6356	1.4889 ± 0.0006
x1 = 0.8019	1.4922 ± 0.0006
x1 = 0.8984	1.4923 ± 0.0006
x1 = 1	1.4943 ± 0.0006

From the NIST ThermoML archive (doi:10.1016/j.jct.2016.01.012)
